Results taken from PubChem BioAssay AID1794831.

Target: Solute carrier family 2, facilitated glucose transporter member 9 (Homo sapiens) (UniProt Q9NRM0)
Experiment: GLUT9 transporter activity via membrane potential – cell-based, membrane potential dye, HEK-293, SLC2A9 overexpression, dose response (AID 1794831)
Conditions: HEK-293 SLC2A9 OE, FLIPR membrane potential dye

Sequence of Solute carrier family 2, facilitated glucose transporter member 9 (Homo sapiens) (Q9NRM0 whole entry, looked up): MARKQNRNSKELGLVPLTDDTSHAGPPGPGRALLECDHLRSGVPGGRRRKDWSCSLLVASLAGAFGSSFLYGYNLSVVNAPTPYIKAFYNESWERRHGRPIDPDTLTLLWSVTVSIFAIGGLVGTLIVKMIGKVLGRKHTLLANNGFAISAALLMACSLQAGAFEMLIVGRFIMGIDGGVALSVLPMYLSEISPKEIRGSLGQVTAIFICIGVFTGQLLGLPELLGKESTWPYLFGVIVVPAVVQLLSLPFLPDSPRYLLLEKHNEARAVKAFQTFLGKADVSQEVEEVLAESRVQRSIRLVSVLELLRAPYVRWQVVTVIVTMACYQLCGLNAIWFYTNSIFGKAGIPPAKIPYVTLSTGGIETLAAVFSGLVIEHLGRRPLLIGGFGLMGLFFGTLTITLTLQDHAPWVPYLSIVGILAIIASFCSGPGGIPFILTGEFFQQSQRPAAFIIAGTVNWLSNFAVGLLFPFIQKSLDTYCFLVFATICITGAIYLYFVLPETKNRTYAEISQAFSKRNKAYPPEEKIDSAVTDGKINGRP

| EC50 [µM] | SMILES |
| --- | --- |
| 1000 | O=C(O)c1cc(=O)[nH]c(=O)[nH]1 |
| 300 | O=c1[nH]c(=O)c2[nH]c(=O)[nH]c2[nH]1 |
